Test results reported in patent publication US9072698B2, “Method for screening anti-cancer compounds inhibiting function of TM4SF5 and anti-cancer composition containing chalcone compounds” (Seoul National University Industry Foundation, priority 2006, dated 2015).
≈ marks a conversion by molar mass, not a printed value.

What was measured:
Type in all cases: cell-based
[1] = test system: HCT15 (colon adenocarcinoma); assay: In vitro cytotoxicity, sulforhodamine B (SRB) method, HCT15; conditions: Homo sapiens; HCT-15, SRB method; read-out: cytotoxicity (ED50) HCT-15
Experimental: (§1) The chalcone derivatives of the present invention were evaluated for in vitro cytotoxicity against human carcinoma cell lines using a sulforhodamine B (SRB) method, which was developed in 1989 by the National Cancer Institute (NCI), USA.
(§2) HCT15 (colon adenocarcinoma; ATCC CCL-225), PC-3 (prostate adenocarcinoma; ATCC CRL-1435), and A-549 (lung carcinoma; ATCC CCL-185) cell lines were used. All of these carcinoma cells were sub-cultured at the Korean Research Institute of Bioscience and Biotechnology (KRIBB), Korea.
(§3) The human carcinoma cell lines were cultured in 10% FCS-containing RPMI 1640 medium (Gibco Cat. No. 31800) in an incubator at 37° C. under 5% CO2, and sub-cultured twice per week.
(§4) Cells were detached from the attached surface using 0.25% Trypsin (Sigma) and 3 mM CDTA (1,2-cyclohexane diamine tetraacetic acid, Sigma) in phosphate buffered saline (PBS, Sigma).
(§5) Compounds to be tested (the chalcone derivatives set forth in Table 1) were dissolved in a small amount of dimethylsulfoxide (DMSO, Sigma), and diluted in culture medium to a desired concentration. The final concentration of DMSO was less than 0.5%. The diluted compounds (final concentration: 30, 10, 3, 1 and 0.3 μg/ml) were sterilized through a 0.22-μm microfilter (Millipore). The cytotoxicity of the compounds to human carcinoma cell lines was assessed using a typical SRB method.

[2] = test system: A-549 (lung carcinoma); assay: In vitro cytotoxicity, sulforhodamine B (SRB) method, A-549; conditions: Homo sapiens, A549; A-549, SRB method; read-out: cytotoxicity (ED50) A-549
Experimental: as §1, §2, §3, §4, §5

[3] = test system: PC-3 (prostate adenocarcinoma); assay: In vitro cytotoxicity, sulforhodamine B (SRB) method, PC-3; conditions: Homo sapiens; PC-3, SRB method; read-out: cytotoxicity (ED50) PC-3
Experimental: as §1, §2, §3, §4, §5

SMILES | IC50 [1] | IC50 [2] | IC50 [3]
O=C(/C=C/c1cccc(O)c1)c1ccc(NS(=O)(=O)c2cccc(O)c2)cc1 [Compound 16, 4′-(m-hydroxybenzenesulfonylamino)-3-hydroxychalcone] | 37 µg/mL (≈ 93.6 µM) | 33 µg/mL (≈ 83.5 µM) | 47 µg/mL (≈ 119 µM)
O=C(/C=C/c1cccc(O)c1)c1cccc(NS(=O)(=O)c2cccc(O)c2)c1 [Compound 19, 3′-(m-hydroxybenzenesulfonylamino)-3-hydroxychalcone] | 38 µg/mL (≈ 96.1 µM) | 47 µg/mL (≈ 119 µM) | 53 µg/mL (≈ 134 µM)
O=C(/C=C/c1ccccc1O)c1ccc(NS(=O)(=O)c2cccc(O)c2)cc1 [Compound 17, 4′-(m-hydroxybenzenesulfonylamino)-2-hydroxychalcone] | 32 µg/mL (≈ 80.9 µM) | 33 µg/mL (≈ 83.5 µM) | 44 µg/mL (≈ 111 µM)
O=C(/C=C/c1ccc(O)c(O)c1)c1ccc(NS(=O)(=O)c2ccc(F)cc2)cc1 [Compound 72, 4′-(p-fluorobenzensulfonylamino)-3,4-dihydroxychalcone] | 10 µg/mL (≈ 24.2 µM) | 11 µg/mL (≈ 26.6 µM) | 8 µg/mL (≈ 19.4 µM)
O=C(/C=C/c1cc(O)ccc1O)c1ccc(OS(=O)(=O)c2ccc(O)cc2)cc1 [Compound 93, 4′-(p-hydroxybenzenesulfonate)-2,5-dihydroxychalcone] | 6 µg/mL (≈ 14.5 µM) | 8 µg/mL (≈ 19.4 µM) | 14 µg/mL (≈ 33.9 µM)
Nc1cccc(S(=O)(=O)Nc2ccc(C(=O)/C=C/c3ccc(O)cc3)cc2)c1 [Compound 31, 4′-(m-aminobenzensulfonylamino)-4-hydroxychalcone] | 24 µg/mL (≈ 60.8 µM) | 34 µg/mL (≈ 86.2 µM) | 27 µg/mL (≈ 68.4 µM)
O=C(/C=C/c1ccc(O)c(O)c1)c1ccc(NS(=O)(=O)c2ccccc2[N+](=O)[O-])cc1 [Compound 77, 4′-(o-nitrobenzensulfonylamino)-3,4-dihydroxychalcone] | 10 µg/mL (≈ 22.7 µM) | 11 µg/mL (≈ 25 µM) | 12 µg/mL (≈ 27.2 µM)
O=C(/C=C/c1ccc(O)cc1)c1ccc(OS(=O)(=O)c2ccc(F)cc2)cc1 [Compound 36, 4′-(p-fluorobenzenesulfonate)-4-hydroxychalcone] | 48 µg/mL (≈ 120 µM) | 41 µg/mL (≈ 103 µM) | 39 µg/mL (≈ 97.9 µM)
Cc1ccc(S(=O)(=O)Nc2ccc(C(=O)/C=C/c3cccc(O)c3O)cc2)cc1 [Compound 43, 4′-(p-toluenesulfonylamino)-2,3-dihydroxychalcone] | 12 µg/mL (≈ 29.3 µM) | 18 µg/mL (≈ 44 µM) | 14 µg/mL (≈ 34.2 µM)
O=C(/C=C/c1ccc(O)cc1)c1ccc(OS(=O)(=O)c2ccccc2)cc1 [Compound 40, 4′-(benzenesulfonate)-4-hydroxychalcone] | 31 µg/mL | 30 µg/mL | 39 µg/mL
O=C(/C=C/c1ccc(O)cc1)c1ccc(OS(=O)(=O)c2ccc([N+](=O)[O-])cc2)cc1 [Compound 38, 4′-(p-nitrobenzenesulfonate)-4-hydroxychalcone] | 52 µg/mL (≈ 122 µM) | 57 µg/mL (≈ 134 µM) | 47 µg/mL (≈ 110 µM)
O=C(/C=C/c1ccc(O)cc1O)c1ccc(OS(=O)(=O)c2ccc(O)cc2)cc1 [Compound 92, 4′-(p-hydroxybenzenesulfonate)-2,4-dihydroxychalcone] | 8 µg/mL (≈ 19.4 µM) | 9 µg/mL (≈ 21.8 µM) | 7 µg/mL (≈ 17 µM)
O=C(/C=C/c1ccc(O)cc1)c1ccc(NS(=O)(=O)c2ccccc2[N+](=O)[O-])cc1 [Compound 29, 4′-(o-nitrobenzensulfonylamino)-4-hydroxychalcone] | 29 µg/mL (≈ 68.3 µM) | 37 µg/mL (≈ 87.2 µM) | 21 µg/mL (≈ 49.5 µM)
O=C(/C=C/c1cccc(O)c1O)c1ccc(NS(=O)(=O)c2cccc(O)c2)cc1 [Compound 61, 4′-(m-hydroxybenzenesulfonylamino)-2,3-dihydroxychalcone] | 12 µg/mL (≈ 29.2 µM) | 10 µg/mL (≈ 24.3 µM) | 10 µg/mL (≈ 24.3 µM)
O=C(/C=C/c1cccc(O)c1O)c1ccc(NS(=O)(=O)c2ccc(O)cc2)cc1 [Compound 49, 4′-(p-hydroxybenzenesulfonylamino)-2,3-dihydroxychalcone] | 8 µg/mL (≈ 19.4 µM) | 6 µg/mL (≈ 14.6 µM) | 14 µg/mL (≈ 34 µM)
O=C(/C=C/c1cccc(O)c1O)c1cccc(NS(=O)(=O)c2ccc(O)cc2)c1 [Compound 53, 3′-(p-hydroxybenzenesulfonylamino)-2,3-dihydroxychalcone] | 8 µg/mL (≈ 19.4 µM) | 7 µg/mL (≈ 17 µM) | 8 µg/mL (≈ 19.4 µM)
O=C(/C=C/c1ccccc1O)c1ccccc1NS(=O)(=O)c1cccc(O)c1 [Compound 23, 2′-(m-hydroxybenzenesulfonylamino)-2-hydroxychalcone] | 35 µg/mL (≈ 88.5 µM) | 31 µg/mL (≈ 78.4 µM) | 37 µg/mL (≈ 93.6 µM)
Nc1ccc(S(=O)(=O)Nc2ccc(C(=O)/C=C/c3ccc(O)cc3)cc2)cc1 [Compound 30, 4′-(p-aminobenzensulfonylamino)-4-hydroxychalcone] | 52 µg/mL (≈ 132 µM) | 50 µg/mL (≈ 127 µM) | 59 µg/mL (≈ 150 µM)

SMILES | IC50 [1] | IC50 [2] | IC50 [3]
O=C(/C=C/c1cccc(O)c1O)c1ccccc1NS(=O)(=O)c1ccc(O)cc1 [Compound 57, 2′-(p-hydroxybenzenesulfonylamino)-2,3-dihydroxychalcone] | 9 µg/mL (≈ 21.9 µM) | 7 µg/mL (≈ 17 µM) | 10 µg/mL (≈ 24.3 µM)
O=C(/C=C/c1ccc(O)c(O)c1)c1ccc(OS(=O)(=O)c2ccc(O)cc2)cc1 [Compound 90, 4′-(p-hydroxybenzenesulfonate)-3,4-dihydroxychalcone] | 6 µg/mL (≈ 14.5 µM) | 4 µg/mL (≈ 9.7 µM) | 8 µg/mL (≈ 19.4 µM)
CS(=O)(=O)Oc1ccc(C(=O)/C=C/c2ccc(O)cc2)cc1 [Compound 41, 4′-(methanesulfonate)-4-hydroxychalcone] | 42 µg/mL | 49 µg/mL | 48 µg/mL
O=C(/C=C/c1ccc(O)cc1)c1ccc(NS(=O)(=O)c2cccc([N+](=O)[O-])c2)cc1 [Compound 28, 4′-(m-nitrobenzensulfonylamino)-4-hydroxychalcone] | 54 µg/mL (≈ 127 µM) | 59 µg/mL (≈ 139 µM) | 57 µg/mL (≈ 134 µM)
O=C(/C=C/c1ccc(O)cc1)c1ccc(OS(=O)(=O)c2cccc(F)c2)cc1 [Compound 37, 4′-(m-fluorobenzenesulfonate)-4-hydroxychalcone] | 34 µg/mL (≈ 85.3 µM) | 37 µg/mL (≈ 92.9 µM) | 27 µg/mL (≈ 67.8 µM)
O=C(/C=C/c1ccc(O)cc1)c1ccc(NS(=O)(=O)c2ccc(O)cc2)cc1 [Compound 6, 4′-(p-hydroxybenzenesulfonylamino)-4-hydroxychalcone] | 37 µg/mL (≈ 93.6 µM) | 41 µg/mL (≈ 104 µM) | 33 µg/mL (≈ 83.5 µM)
O=C(/C=C/c1cccc(O)c1)c1ccccc1NS(=O)(=O)c1ccc(O)cc1 [Compound 13, 2′-(p-hydroxybenzenesulfonylamino)-3-hydroxychalcone] | 38 µg/mL (≈ 96.1 µM) | 36 µg/mL (≈ 91 µM) | 41 µg/mL (≈ 104 µM)
O=C(/C=C/c1cccc(O)c1)c1ccc(NS(=O)(=O)c2ccc(O)cc2)cc1 [Compound 7, 4′-(p-hydroxybenzenesulfonylamino)-3-hydroxychalcone] | 33 µg/mL (≈ 83.5 µM) | 30 µg/mL (≈ 75.9 µM) | 37 µg/mL (≈ 93.6 µM)
O=C(/C=C/c1cc(O)ccc1O)c1ccc(NS(=O)(=O)c2ccc(O)cc2)cc1 [Compound 51, 4′-(p-hydroxybenzenesulfonylamino)-2,5-dihydroxychalcone] | 6 µg/mL (≈ 14.6 µM) | 13 µg/mL (≈ 31.6 µM) | 11 µg/mL (≈ 26.7 µM)
O=C(/C=C/c1ccc(O)cc1O)c1ccccc1NS(=O)(=O)c1ccc(O)cc1 [Compound 58, 2′-(p-hydroxybenzenesulfonylamino)-2,4-dihydroxychalcone] | 11 µg/mL (≈ 26.7 µM) | 12 µg/mL (≈ 29.2 µM) | 10 µg/mL (≈ 24.3 µM)
O=C(/C=C/c1cccc(O)c1O)c1ccc(OS(=O)(=O)c2ccc(O)cc2)cc1 [Compound 91, 4′-(p-hydroxybenzenesulfonate)-2,3-dihydroxychalcone] | 7 µg/mL (≈ 17 µM) | 10 µg/mL (≈ 24.2 µM) | 14 µg/mL (≈ 33.9 µM)
O=C(/C=C/c1cc(O)ccc1O)c1ccc(NS(=O)(=O)c2cccc(O)c2)cc1 [Compound 63, 4′-(m-hydroxybenzenesulfonylamino)-2,5-dihydroxychalcone] | 8 µg/mL (≈ 19.4 µM) | 10 µg/mL (≈ 24.3 µM) | 14 µg/mL (≈ 34 µM)
O=C(/C=C/c1ccc(O)c(O)c1)c1ccc(NS(=O)(=O)c2cccc(O)c2)cc1 [Compound 60, 4′-(m-hydroxybenzenesulfonylamino)-3,4-dihydroxychalcone] | 4 µg/mL (≈ 9.72 µM) | 7 µg/mL (≈ 17 µM) | 8 µg/mL (≈ 19.4 µM)
O=C(/C=C/c1ccc(O)cc1)c1cccc(NS(=O)(=O)c2ccc(O)cc2)c1 [Compound 9, 3′-(p-hydroxybenzenesulfonylamino)-4-hydroxychalcone] | 24 µg/mL (≈ 60.7 µM) | 40 µg/mL (≈ 101 µM) | 31 µg/mL (≈ 78.4 µM)
O=C(/C=C/c1cccc(O)c1)c1ccc(OS(=O)(=O)c2cccc(O)c2)cc1 [Compound 88, 4′-(m-hydroxybenzenesulfonate)-3-hydroxychalcone] | 21 µg/mL (≈ 53 µM) | 32 µg/mL (≈ 80.7 µM) | 28 µg/mL (≈ 70.6 µM)
O=C(/C=C/c1ccc(O)cc1O)c1cccc(NS(=O)(=O)c2ccc(O)cc2)c1 [Compound 54, 3′-(p-hydroxybenzenesulfonylamino)-2,4-dihydroxychalcone] | 7 µg/mL (≈ 17 µM) | 9 µg/mL (≈ 21.9 µM) | 9 µg/mL (≈ 21.9 µM)
Nc1ccc(S(=O)(=O)Oc2ccc(C(=O)/C=C/c3ccc(O)cc3)cc2)cc1 [Compound 39, 4′-(p-aminobenzenesulfonate)-4-hydroxychalcone] | 39 µg/mL (≈ 98.6 µM) | 37 µg/mL (≈ 93.6 µM) | 38 µg/mL (≈ 96.1 µM)
